Results on 38 compounds are retold here after ChEMBL document CHEMBL1142445, “Carbonic anhydrase inhibitors: inhibition of Plasmodium falciparum carbonic anhydrase with aromatic/heterocyclic sulfonamides-in vitro and in vivo studies” (Bioorg Med Chem Lett, 2008).

Test [1] concerns Plasmodium falciparum. As to the kind of experiment: Ex vivo inhibition of Plasmodium falciparum growth in cultured cells after 48hrs as [3H]hypoxanthine uptake. Format: functional, organism-based.
Test [2] can be described thus: (§1) Inhibition of Plasmodium falciparum recombinant carbonic anhydrase.
The subject of another test is BC. As to the kind of experiment: Cytotoxicity against human BC cells. Format: functional, cell-based.
Test [3] deals with Plasmodium berghei. Nature of the test: Antimalarial activity against Plasmodium berghei infected mice (Mus musculus) at 2.5 to 25 mg/kg. Format: functional, organism-based.
In another test the test system is KB. Nature of the test: Cytotoxicity against human KB cells. Format: functional, cell-based.
The subject of test [4] is Plasmodium berghei. As to the kind of experiment: Antimalarial activity against Plasmodium berghei infected mice (Mus musculus). Format: functional. The following applies: read-out: ID50 (the source's name).
Test [5] concerns Plasmodium falciparum. The description is as §1.

Broadly, the IC50 is the concentration that inhibits the measured activity by half. A high value points to a need for much substance. For orientation: Ki means a dissociation constant, usually derived from enzyme kinetics or from competition with a known ligand.

The structures appear in SMILES notation. Active and inactive are the calls of the source. The calls are words filed in the database; no cut-off is given here.

For the compound `CN(C)c1ccc(/C=N/Cc2ccc(S(N)(=O)=O)cc2)cc1`, the IC50 in the test with Plasmodium falciparum [1] was more than 50 µM. Also, in test [2], the Ki is more than 25 µM.

Regarding `NS(=O)(=O)c1ccc(C/N=C/c2ccccc2Cl)cc1`, the outcome in the test with BC, with Plasmodium berghei [3] and in the test on KB was inactive. The same compound came in with an IC50 in the test on Plasmodium falciparum [1] of 3.89 µM. Also, the Ki in test [2] was found to be 0.25 µM.

Regarding `NC(=S)Nc1ccc(S(N)(=O)=O)cc1`, in the test with Plasmodium falciparum [1], the IC50 is more than 50 µM. Besides, the Ki in test [2] is 2.1 µM.

In the test with Plasmodium falciparum [1], `NS(=O)(=O)c1ccc(/N=C/c2ccc3ccccc3c2Br)cc1` gave an IC50 of more than 50 µM. Further, in test [2], the Ki worked out at 4.16 µM.

Compound `NS(=O)(=O)c1nnc(NS(=O)(=O)C(F)(F)C(F)(F)C(F)(F)C(F)(F)C(F)(F)C(F)(F)C(F)(F)C(F)(F)F)s1` returned an IC50 in the test with Plasmodium falciparum [1] of more than 50 µM. Further, the Ki in test [2] stood at 0.192 µM.

With `COc1ccc2c(CC(=O)Nc3cc(C(F)(F)F)c(S(N)(=O)=O)cc3S(N)(=O)=O)cc(=O)oc2c1`, the IC50 in the test on Plasmodium falciparum [1] was more than 50 µM. In addition, in test [2], the Ki was found to be 2.52 µM.

The compound `CN(C)c1ccc(/C=N/c2ccc(S(N)(=O)=O)cc2)cc1` registered an IC50 with Plasmodium falciparum [1] of more than 50 µM. For the same compound, in test [2], the Ki is more than 25 µM.

Turning to `NS(=O)(=O)c1ccc(CNC(=S)NC(=O)c2ccc(Cl)c(Cl)c2)cc1`, the result in the test with BC and with KB was inactive. Besides, the ED50 with Plasmodium berghei [4] is 10 mg/kg. Also, in the test with Plasmodium falciparum [1], the IC50 stood at 1 µM. In addition, the Ki in test [2] is 0.18 µM.

Regarding `COc1ccc2c(CC(=O)Nc3ccccc3S(N)(=O)=O)cc(=O)oc2c1`, the IC50 in the test with Plasmodium falciparum [1] is more than 50 µM. Also, the Ki in test [2] was found to be 1.44 µM.

On to `NS(=O)(=O)c1ccccc1NS(=O)(=O)c1c(F)c(F)c(F)c(F)c1F`, for which the IC50 in the test on Plasmodium falciparum [1] is more than 50 µM. In test [2], the Ki was 3.06 µM.

With `C[C@@H]1CC[C@H]2[C@@H](C)C(=O)O[C@@H]3O[C@@]4(C)CC[C@@H]1[C@]32OO4`, in the test with Plasmodium falciparum [5], the result was inactive.

`NS(=O)(=O)c1ccc(NC(=O)Nc2ccc(Cl)c(Cl)c2)cc1` yielded an IC50 in the test with Plasmodium falciparum [1] of more than 50 µM. Further, the Ki in test [2] is 5.58 µM.

With `NS(=O)(=O)c1ccc(NC(=O)c2cc3ccccc3oc2=O)cc1`, the IC50 with Plasmodium falciparum [1] was more than 50 µM. In test [2], the Ki was 5.82 µM.

`CCN(CC)C(=S)SNCc1ccc(S(N)(=O)=O)cc1` showed an IC50 in the test with Plasmodium falciparum [1] of more than 50 µM. Also, the Ki in test [2] came out at 8.39 µM.

On to `COc1ccc2c(CC(=O)Nc3cccc(S(N)(=O)=O)c3)cc(=O)oc2c1`, for which, in the test with Plasmodium falciparum [1], the IC50 is more than 50 µM. In addition, in test [2], the Ki was 4.58 µM.

`CN(C)c1ccc(/C=N/CCCc2ccc(S(N)(=O)=O)cc2)cc1` returned an IC50 in the test with Plasmodium falciparum [1] of more than 50 µM. Also, the Ki in test [2] was more than 25 µM.

In turn, `NS(=O)(=O)c1ccc(NC(=O)c2ccc(S(N)(=O)=O)cc2)cc1` came in with an IC50 in the test on Plasmodium falciparum [1] of more than 50 µM. Besides, the Ki in test [2] came to 3.05 µM.

`Cn1nc(S(N)(=O)=O)s/c1=N/C(=O)c1c(F)c(F)c(F)c(F)c1F` returned an IC50 in the test with Plasmodium falciparum [1] of more than 50 µM. In addition, the Ki in test [2] amounted to 6.87 µM.

In the test on Plasmodium falciparum [1], `NS(=O)(=O)c1nnc(NC(=O)c2c(F)c(F)c(F)c(F)c2F)s1` yielded an IC50 of more than 50 µM. Besides, in test [2], the Ki worked out at 3.44 µM.

Take `C=C[C@H]1CN2CC[C@H]1C[C@H]2[C@H](O)c1ccnc2ccc(OC)cc12`: the outcome with Plasmodium falciparum [5] was inactive.

`NS(=O)(=O)c1ccc(CCNC(=O)c2cc3ccccc3oc2=O)cc1` gave a half-maximal inhibitory concentration (IC50) with Plasmodium falciparum [1] of more than 50 µM. In addition, in test [2], the Ki came to 13.2 µM.

Consider `CCN(CC)CCCC(C)Nc1ccnc2cc(Cl)ccc12` (stereo not drawn) [CHLOROQUINE], for which the ED50 in the test on Plasmodium berghei [4] amounted to 5 mg/kg. The outcome in the test with Plasmodium falciparum [5] was inactive.

As to `NS(=O)(=O)c1ccc(CNC(=O)c2cc3ccccc3oc2=O)cc1`, in the test with Plasmodium falciparum [1], the IC50 is more than 50 µM. In addition, in test [2], the Ki is 5.05 µM.

In the test on Plasmodium falciparum [1], `NS(=O)(=O)c1cc(S(N)(=O)=O)c(C(F)(F)F)cc1NC(=O)c1cc2ccccc2oc1=O` had an IC50 of more than 50 µM. In addition, the inhibition constant (Ki) in test [2] was determined as 9.03 µM.

Consider `NS(=O)(=O)c1cccc(NC(=O)c2cc3ccccc3oc2=O)c1`, for which the IC50 in the test on Plasmodium falciparum [1] was more than 50 µM. Also, the Ki in test [2] was more than 25 µM.

The compound `NS(=O)(=O)c1ccc(CNC(=O)N(c2ccccc2)c2ccccc2)cc1` gave an IC50 with Plasmodium falciparum [1] of more than 50 µM. The Ki in test [2] was 16 µM.

For `NS(=O)(=O)c1nnc(NS(=O)(=O)c2c(F)c(F)c(F)c(F)c2F)s1`, the IC50 in the test with Plasmodium falciparum [1] was more than 50 µM. Further, the Ki in test [2] is 2.58 µM.

Regarding `NS(=O)(=O)c1ccc(NS(=O)(=O)c2ccc(NC(=O)N(c3ccccc3)c3ccccc3)cc2)cc1`, the IC50 in the test on Plasmodium falciparum [1] was more than 50 µM. For the same compound, the Ki in test [2] stood at 16.5 µM.

As to `CC(=O)Nc1nnc(S(N)(=O)=O)s1` [ACETAZOLAMIDE], the outcome in the test on BC, in the test on Plasmodium berghei [3] and in the test with KB was inactive. Further, half-maximal inhibition in the test on Plasmodium falciparum [1] (IC50) required 20 µM. Moreover, the Ki in test [2] stood at 0.315 µM.

`NS(=O)(=O)c1ccccc1NC(=O)c1cc2ccccc2oc1=O` yielded an IC50 in the test with Plasmodium falciparum [1] of more than 50 µM. In addition, the Ki in test [2] was 18.5 µM.

As to `NS(=O)(=O)c1nnc(NC(=S)NC(=O)Nc2ccccc2)s1`, the IC50 with Plasmodium falciparum [1] is more than 50 µM. In test [2], the Ki was 6.73 µM.

Consider `Cn1ccnc1/C=N/CCCc1ccc(S(N)(=O)=O)cc1`, for which the IC50 in the test with Plasmodium falciparum [1] is more than 50 µM. In addition, the Ki in test [2] is more than 25 µM.

Turning to `NS(=O)(=O)c1ccccc1NC(=O)N(c1ccccc1)c1ccccc1`, in the test on Plasmodium falciparum [1], the IC50 was more than 50 µM. Besides, the Ki in test [2] turned out to be 1.99 µM.

Turning to `COc1ccc2c(CC(=O)Nc3ccc(S(N)(=O)=O)cc3)cc(=O)oc2c1`, the IC50 in the test on Plasmodium falciparum [1] was more than 50 µM. The Ki in test [2] was 0.97 µM.

`CCN(CC)C(=S)SNc1ccc(S(N)(=O)=O)cc1`: the IC50 in the test with Plasmodium falciparum [1] is more than 50 µM. In test [2], the Ki was found to be 3 µM.

In the test on Plasmodium falciparum [1], `CC(=O)NS(=O)(=O)c1ccc(NC(=S)Nc2ccc(S(N)(=O)=O)cc2)cc1` yielded a 50% inhibitory concentration (IC50) of more than 50 µM. Besides, the Ki in test [2] is 4.62 µM.

`COc1ccc2c(CC(=O)NNc3ccc(S(N)(=O)=O)cc3)cc(=O)oc2c1`: the IC50 with Plasmodium falciparum [1] was more than 50 µM. For the same compound, the inhibition constant Ki in test [2] was determined as 3.51 µM.

On to `NS(=O)(=O)c1ccc(NNC(=O)c2cc3ccccc3oc2=O)cc1`, for which, in the test on Plasmodium falciparum [1], the IC50 was more than 50 µM. Further, in test [2], the Ki is 4.06 µM.
